Where “and” joins values, the source holds several entries; their conditions need not be identical. Equal values may be shown once.
Key:
[1] = target: Glycogen synthase kinase-3 alpha (Homo sapiens, UniProt P49840); assay: TR-FRET Assay
Procedure, shortened: (§1)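 TR-FRET readout: streptavidin-d2 (40 nM in added detection mix) plus Tb-anti-pSer641 Ab (2 nM in mix). Steps were 30 min compound preincubation, kinase reaction, then EDTA stop.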

[2] = target: Glycogen synthase kinase-3 beta (Homo sapiens, UniProt P49841); assay: TR-FRET Assay
Sequence of Glycogen synthase kinase-3 beta (P49841 whole entry): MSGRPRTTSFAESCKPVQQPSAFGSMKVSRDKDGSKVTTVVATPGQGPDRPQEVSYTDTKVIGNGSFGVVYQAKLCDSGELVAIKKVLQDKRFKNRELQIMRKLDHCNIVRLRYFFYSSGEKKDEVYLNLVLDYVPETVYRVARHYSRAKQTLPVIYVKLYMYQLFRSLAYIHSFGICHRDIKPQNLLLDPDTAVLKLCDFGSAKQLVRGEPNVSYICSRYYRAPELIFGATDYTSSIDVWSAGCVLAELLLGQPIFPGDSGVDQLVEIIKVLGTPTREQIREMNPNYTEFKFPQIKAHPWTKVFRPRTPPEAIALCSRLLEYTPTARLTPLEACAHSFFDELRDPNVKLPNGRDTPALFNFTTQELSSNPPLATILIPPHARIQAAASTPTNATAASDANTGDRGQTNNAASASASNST
Procedure, shortened: as §1

Sequence of Glycogen synthase kinase-3 alpha (P49840 whole entry): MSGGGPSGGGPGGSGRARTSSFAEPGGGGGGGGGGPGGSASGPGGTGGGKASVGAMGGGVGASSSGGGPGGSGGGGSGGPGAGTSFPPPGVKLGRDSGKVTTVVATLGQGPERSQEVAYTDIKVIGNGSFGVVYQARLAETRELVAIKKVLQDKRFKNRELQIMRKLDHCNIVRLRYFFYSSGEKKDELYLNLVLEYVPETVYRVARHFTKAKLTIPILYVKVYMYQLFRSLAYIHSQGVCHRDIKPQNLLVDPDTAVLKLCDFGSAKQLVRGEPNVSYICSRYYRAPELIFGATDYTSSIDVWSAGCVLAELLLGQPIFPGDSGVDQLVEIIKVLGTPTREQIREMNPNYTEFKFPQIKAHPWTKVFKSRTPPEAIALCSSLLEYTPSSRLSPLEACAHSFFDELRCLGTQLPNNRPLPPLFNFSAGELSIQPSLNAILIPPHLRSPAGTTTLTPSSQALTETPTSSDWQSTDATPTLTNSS

IC50 [1] | IC50 [2] | SMILES
100 to 1000 nM | 1000 to 5000 nM | CC[C@@]1(c2cccc(OC)c2)C2=C(CC(C)(C)NC2=O)NC2N=NC(C)=C21 (some centres not stated) [US20250313563, Compound 949337]
< 100 nM | < 100 nM and 100 to 1000 nM | CC[C@@]1(c2cccc(N(C)c3ncccn3)c2)C2=C(CC(C)(C)NC2=O)NC2N=NC(C(F)F)=C21 (some centres not stated) [US20250313563, Compound 951740]
< 100 nM and 100 to 1000 nM | < 100 nM and 1000 to 5000 nM | CCOc1cccc(S(=O)(=O)N2CCC3(CC2)C2=C(N=NC2)NC2=C3C(=O)CC(C)(C)C2)c1 [US20250313563, Compound 947253]
< 100 nM and 1000 to 5000 nM | < 100 nM and 1000 to 5000 nM | Cn1cc(S(=O)(=O)N2CC[C@]3(C2)C2=C(N=NC2)NC2=C3C(=O)CC(C)(C)C2)cn1 [US20250313563, Compound 951726]
< 100 nM | < 100 nM and 1000 to 5000 nM | CC[C@@]1(c2cccc(-c3ccncc3C(F)(F)F)c2)C2=CN=NC2NC2=C1C(=O)NC(C)(C)C2 (some centres not stated) [US20250313563, Compound 952025]
< 100 nM | < 100 nM | CCN(c1cccc(C2(CC)C3=CN=NC3NC3=C2C(=O)CC(C)(C)C3)c1)c1ncccn1 (configuration not stated) [US20250313563, Compound 919840]
< 100 nM and 100 to 1000 nM | 100 to 1000 nM and > 5000 nM | CC[C@]1(c2cccc(C(F)(F)F)c2)C2=CN=NC2NC2=C1C(=O)N(c1cccnc1)CC2 (some centres not stated) [US20250313563, Compound 947432]
< 100 nM | < 100 nM | CC1(C)CC(=O)C2=C(C1)NC1=C(CN=N1)C21COC2(CN(C(=O)c3ccccc3)C2)C1 (configuration not stated) [US20250313563, Compound 917231]
1000 to 5000 nM | > 5000 nM | CC[C@]1(c2cccc(-c3ccnc(C)c3C)c2)C2=C(CC(C)(C)NC2=O)NC2N=NC(C)=C21 (some centres not stated) [US20250313563, Compound 948183]
100 to 1000 nM | 100 to 1000 nM | O=C1C[C@@]2(CCOC2)CC2=C1C1(CCOCC1)C1=C(N=NC1)N2 [US20250313563, Compound 901475]
100 to 1000 nM | 100 to 1000 nM | CC[C@@]1(c2cccc(Br)c2)C2=C(C[C@@H](C)CC2=O)NC2N=NC(C(F)(F)F)=C21 (some centres not stated) [US20250313563, Compound 828849]
< 100 nM | < 100 nM | CCC1(c2cccc(S(=O)(=O)C(C)C)c2)C2=CN=NC2NC2=C1C(=O)CC(C)(C)C2 (configuration not stated) [US20250313563, Compound 912169]
100 to 1000 nM | 1000 to 5000 nM | CC[C@@]1(c2cccc(-c3cc(C4CCCC4)nn3C)c2)C2=CN=NC2NC2=C1C(=O)NC(C)(C)C2 (some centres not stated) [US20250313563, Compound 952023]
> 5000 nM | > 5000 nM | CC[C@@]1(c2cccc(C(F)(F)F)c2)C2=C(N=NC2)NC2=C1C(=O)N(C)C2 [US20250313563, Compound 945368]
> 1700 nM | > 5000 nM | C[C@@]1(c2ccccc2)C2=C(N=NC2)NC2=C1C(=O)CC1(CCCC1)C2 [US20250313563, Compound 792339]

Further lines, the compound ahead of its results:

SMILES | IC50 [1] | IC50 [2]
CC(C)S(=O)(=O)N1CCC2(CC1)C1=C(N=NC1)NC1=C2C(=O)CC(C)(C)C1 [US20250313563, Compound 913129] | < 100 nM | < 100 nM and 100 to 1000 nM
CCC1(c2cccc(N3CCCC3)c2)C2=C(CC(C)(C)NC2=O)NC2N=NC(C)=C21 (configuration not stated) [US20250313563, Compound 947673] | < 100 nM | 100 to 1000 nM
CCC1(c2cccc(Br)c2)C2=CN=NC2NC2=C1C(=O)NC(C)C2 (configuration not stated) [US20250313563, Compound 913225] | 100 to 1000 nM | 1000 to 5000 nM
CC[C@@]1(c2cccc(-c3ccncc3C)c2)C2=CN=NC2NC2=C1C(=O)NC1(CCOCC1)C2 (some centres not stated) [US20250313563, Compound 948359] | < 100 nM and 100 to 1000 nM | < 100 nM and 1000 to 5000 nM
COc1cncc(F)c1-c1cccc([C@]2(C)C3=C(CC(C)(C)CC3=O)NC3=C2C(CC(C)(C)C)N=N3)c1 (some centres not stated) [US20250313563, Compound 108954] | 1000 to 5000 nM | 100 to 1000 nM
CC[C@@]1(c2cccc(-c3ccnn3C)c2)C2=CN=NC2NC2=C1C(=O)NC1(CCOCC1)C2 (some centres not stated) [US20250313563, Compound 948526] | 1000 to 5000 nM | > 5000 nM
COc1ccc(S(=O)(=O)N2CCC3(CC2)C2=C(N=NC2)NC2=C3C(=O)CC(C)(C)C2)cc1C [US20250313563, Compound 945680] | < 100 nM | < 100 nM
CCC1(c2cccc(N3CC4CCC(C4)C3)c2)C2=CN=NC2NC2=C1C(=O)CC(C)(C)C2 (configuration not stated) [US20250313563, Compound 885099] | 100 to 1000 nM | 1000 to 5000 nM
CCC1(c2cccc(S(=O)(=O)Cc3ccccc3)c2)C2=CN=NC2NC2=C1C(=O)CC(C)(C)C2 (configuration not stated) [US20250313563, Compound 913258] | < 100 nM | < 100 nM
CC1(C)CC(=O)C2=C(NC3=C(CN=N3)[C@]23CC[C@@H](C(F)(F)F)CC3)[C@@H]1F [US20250313563, Compound 918284] | < 100 nM | < 100 nM
C[C@H]1CCC[C@@]2(C1)C1=C(N=NC1)NC1=C2C(=O)CC(C)(C)C1 [US20250313563, Compound 893318] | 100 to 1000 nM | 100 to 1000 nM
CC[C@@]1(c2cccc(-c3ccnn3C)c2)C2=C(CC(C)(C)CC2=O)NC2N=NC(C(F)(F)F)=C21 (some centres not stated) [US20250313563, Compound 947372] | < 100 nM | < 100 nM
CC[C@]1(c2cccc(Oc3cncnc3)c2)C2=CN=NC2NC2=C1C(=O)CC(C)(C)C2 (some centres not stated) [US20250313563, Compound 945933] | < 100 nM | < 100 nM
CCC1(c2cccc(N(C)c3nccn3C)c2)C2=CN=NC2NC2=C1C(=O)CC(C)(C)C2 (configuration not stated) [US20250313563, Compound 885402] | 100 to 1000 nM | 1000 to 5000 nM
CC[C@@]1(c2cccc(-c3cnn(C)c3C)c2)C2=C(CC(C)(C)NC2=O)NC2N=NC(C(F)(F)F)=C21 (some centres not stated) [US20250313563, Compound 947819] | < 100 nM | < 100 nM
CCC1(c2cccc(-c3ccncc3C)c2)C2=C(CC(C)(C)CC2=O)NC2N=NC(C)=C21 (configuration not stated) [US20250313563, Compound 883991] | < 100 nM | < 100 nM

SMILES | IC50 [1] | IC50 [2]
CC[C@]1(c2cccc(C(F)(F)F)c2)C2=C(CC(C)(C)CC2=O)NC2N=NC(C)=C21 (some centres not stated) [US20250313563, Compound 810368] | 100 to 1000 nM | > 1670 nM
CC[C@@]1(c2cccc(-c3cnn(-c4ccccc4)c3C(F)(F)F)c2)C2=CN=NC2NC2=C1C(=O)NC(C)(C)C2 (some centres not stated) [US20250313563, Compound 951837] | 100 to 1000 nM | 100 to 1000 nM
CCC1(c2cc(N(C)C(C)=O)ccc2F)C2=CN=NC2NC2=C1C(=O)CC(C)(C)C2 (configuration not stated) [US20250313563, Compound 913124] | 100 to 1000 nM | 100 to 1000 nM
CCN(C(C)=O)c1cccc(C2(CC)C3=CN=NC3NC3=C2C(=O)CC(C)(C)C3)c1 (configuration not stated) [US20250313563, Compound 884109] | < 100 nM | < 100 nM
COCc1ccc(S(=O)(=O)N2CCC3(CC2)C2=C(N=NC2)NC2=C3C(=O)CC(C)(C)C2)cc1 [US20250313563, Compound 947250] | < 100 nM | < 100 nM
CCc1cc(-c2cccc(C3(CC)C4=CN=NC4NC4=C3C(=O)CC(C)(C)C4)c2)ccn1 (configuration not stated) [US20250313563, Compound 947493] | < 100 nM | 100 to 1000 nM
Cc1cccc(C(=O)N2CC3(C2)CC2(CO3)C3=C(N=NC3)NC3=C2C(=O)CC(C)(C)C3)c1C (configuration not stated) [US20250313563, Compound 947284] | < 100 nM | 100 to 1000 nM
CC[C@]1(c2ccccc2)C2=CN=NC2NC2=C1C(=O)CC(C)(C)[C@H]2F (some centres not stated) [US20250313563, Compound 957197] | 100 to 1000 nM and > 5000 nM | 1000 to 5000 nM and > 5000 nM
Cc1cc(S(=O)(=O)N2CCC3(CC2)C2=CN=NC2NC2=C3C(=O)CC(C)(C)C2)ccc1Cl (configuration not stated) [US20250313563, Compound 947475] | < 100 nM | < 100 nM
CCc1cccc(N(C)c2cccc(C3(CC)C4=CN=NC4NC4=C3C(=O)CC(C)(C)C4)c2)n1 (configuration not stated) [US20250313563, Compound 944023] | < 100 nM | 100 to 1000 nM
CCC1(c2cccc(S(=O)(=O)C3COC3)c2)C2=CN=NC2NC2=C1C(=O)CC(C)(C)C2 (configuration not stated) [US20250313563, Compound 944017] | < 100 nM | < 100 nM
CCC1(c2cccc(OC)c2)C2=CN=NC2NC2=C1C(=O)CC(C)(C)C2 (configuration not stated) [US20250313563, Compound 801447] | 100 to 1000 nM | 1000 to 5000 nM
CC[C@@]1(c2cccc(-c3cn(C)nc3C3CC3)c2)C2=CN=NC2NC2=C1C(=O)NC(C)(C)C2 (some centres not stated) [US20250313563, Compound 951706] | < 100 nM | < 100 nM
CC[C@@]1(c2cccc(-c3cnn(CCOC)c3)c2)C2=C(CC(C)(C)CC2=O)NC2N=NC(C)=C21 (some centres not stated) [US20250313563, Compound 913027] | < 100 nM | < 100 nM
CC1(C)CC(=O)C2=C(C1)NC1=C(CN=N1)[C@]21COC2(CN(C(=O)c3ccccc3)C2)C1 [US20250313563, Compound 943956] | 100 to 1000 nM | 1000 to 5000 nM
